Among the data in patent US9884063B2, “Amido-substituted azole compounds” (Bayer Pharma Aktiengesellschaft, priority 2014, dated 2018) are IC50 values, retold here.

Assay [1] has as its target T1, TNKS1 (Homo sapiens, UniProt O95271).
T1 sequence (O95271 1-1327): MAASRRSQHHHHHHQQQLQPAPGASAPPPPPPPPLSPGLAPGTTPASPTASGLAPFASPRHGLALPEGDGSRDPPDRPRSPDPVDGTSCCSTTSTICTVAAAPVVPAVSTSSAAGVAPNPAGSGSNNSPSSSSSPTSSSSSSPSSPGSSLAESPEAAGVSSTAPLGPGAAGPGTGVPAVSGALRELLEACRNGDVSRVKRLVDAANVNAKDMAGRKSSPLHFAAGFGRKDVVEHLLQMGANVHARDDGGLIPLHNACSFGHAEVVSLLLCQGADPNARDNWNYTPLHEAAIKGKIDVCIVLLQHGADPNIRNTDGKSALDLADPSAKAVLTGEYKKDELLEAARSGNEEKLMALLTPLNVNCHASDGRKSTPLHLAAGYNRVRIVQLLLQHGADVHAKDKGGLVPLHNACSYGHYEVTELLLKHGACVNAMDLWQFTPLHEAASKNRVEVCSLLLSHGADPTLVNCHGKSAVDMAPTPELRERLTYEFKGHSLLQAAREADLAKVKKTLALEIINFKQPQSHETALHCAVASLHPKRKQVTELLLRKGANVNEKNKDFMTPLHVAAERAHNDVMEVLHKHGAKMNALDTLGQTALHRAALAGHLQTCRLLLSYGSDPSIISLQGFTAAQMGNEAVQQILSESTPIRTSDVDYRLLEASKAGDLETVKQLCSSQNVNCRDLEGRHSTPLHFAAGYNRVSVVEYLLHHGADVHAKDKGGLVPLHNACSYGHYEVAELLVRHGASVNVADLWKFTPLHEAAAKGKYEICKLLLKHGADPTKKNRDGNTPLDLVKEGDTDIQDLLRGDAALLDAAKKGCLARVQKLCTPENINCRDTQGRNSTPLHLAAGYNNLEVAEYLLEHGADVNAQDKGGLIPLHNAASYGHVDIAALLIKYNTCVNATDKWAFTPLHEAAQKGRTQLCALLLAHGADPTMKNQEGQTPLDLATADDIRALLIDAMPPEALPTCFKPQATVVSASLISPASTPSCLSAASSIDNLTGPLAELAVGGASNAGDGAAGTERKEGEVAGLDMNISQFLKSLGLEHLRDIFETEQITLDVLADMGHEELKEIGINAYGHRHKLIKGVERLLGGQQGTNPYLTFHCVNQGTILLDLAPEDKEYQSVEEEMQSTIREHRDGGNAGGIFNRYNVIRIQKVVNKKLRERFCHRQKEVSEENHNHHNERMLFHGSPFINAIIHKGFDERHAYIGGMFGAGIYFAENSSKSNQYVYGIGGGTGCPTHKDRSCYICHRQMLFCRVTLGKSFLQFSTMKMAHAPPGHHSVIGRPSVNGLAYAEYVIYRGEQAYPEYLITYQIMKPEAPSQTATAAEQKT
As to the kind of experiment: Modified TNKS1 Assay 2 (auto-parsylation, [3H]-NAD+ SPA). It counts as biochemical. Particulars: 6 nM TNKS1, 96 well.

For assay [2], the system named is wildtype Wnt signaling cascade. As to the kind of experiment: HEK293 TOP Assay (Super TopFlash luciferase reporter, Wnt-3a stimulated). The class given is cell-based. Particulars: Homo sapiens, HEK293, 16 h. An outline of the steps:
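Compounds (50 μM down to 15 nM, 3.16-fold steps, in CAFTY buffer pH 7.4, 2 mM Ca2+, 0.01% BSA) tested in parallel on TOP and FOP HEK293 reporter lines to define selective wildtype Wnt inhibition. Pathway driven by recombinant human Wnt-3a applied at 2500–5 ng/ml in two-fold dilutions.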
A general note: In a reporter assay the amount or activity of a reporter protein is the signal.

[3] abbreviates: HEK293 TOP reporter cell line, Wnt-3a at EC50, 16 hours incubation, compound dilution series 50 μM to 15 nM.

For orientation: IC50 means the midpoint of a concentration-inhibition curve. Low readings indicate inhibition by little substance, high ones a need for much substance.

Some results are limits rather than exact numbers.

On to `O=C(Nc1ccc(NC(=O)c2[nH]cnc2C(=O)NCCN2CCCCC2)cc1F)c1ccc(F)cc1` [Example 78, N^5-{3-fluoro-4-[(4-fluorobenzoyl)amino]phenyl}-N^4-[2-(piperidin-1-yl)ethyl]-1H-imidazole-4,5-dicarboxamide], for which the IC50 in assay [1] was greater than 10000 nM; in assay [2] (setting [3]) it was 280 nM.

Take `CNC(=O)c1nc[nH]c1C(=O)Nc1ccc(NC(=O)c2nccnc2Cl)cc1` [Example 372, N^5-(4-{[(3-chloropyrazin-2-yl)carbonyl]amino}phenyl)-N^4-methyl-1H-imidazole-4,5-dicarboxamide]: the concentration for half-maximal inhibition (IC50) was 5700 nM in assay [1] and 9700 nM in assay [2] (setting [3]).

In the case of `O=C(Nc1ccc(NC(=O)c2nc[nH]c2C(=O)NCCN2CCCCC2)cc1)c1ccccc1Cl` [Example 381, N^4-{4-[(2-chlorobenzoyl)amino]phenyl}-N^5-[2-(piperidin-1-yl)ethyl]-1H-imidazole-4,5-dicarboxamide], the half-maximal inhibitory concentration (IC50) in assay [1] stood at 20 nM; in assay [2] (setting [3]), 80 nM.

`CNC(=O)c1nc[nH]c1C(=O)Nc1ccc(NC(=O)c2ccc(F)c(Cl)c2)cc1` [Example 340, N^5-{4-[(3-chloro-4-fluorobenzoyl)amino]phenyl}-N^4-methyl-1H-imidazole-4,5-dicarboxamide]: the IC50 in assay [1] was greater than 10000 nM; in assay [2] (setting [3]) it was 3850 nM.

As to `CN1CC2(C1)CN(C(=O)c1nc[nH]c1C(=O)Nc1ccc(NC(=O)c3ccc(F)cc3Cl)cc1)C2` [Example 46, N-{4-[(2-chloro-4-fluorobenzoyl)amino]phenyl}-4-[(6-methyl-2,6-diazaspiro[3.3]hept-2-yl)carbonyl]-1H-imidazole-5-carboxamide], the IC50 in assay [1] worked out at 680 nM; in assay [2] (setting [3]), 290 nM.

Regarding `CN(C)CCNC(=O)c1nc[nH]c1C(=O)Nc1ccc(NC(=O)c2ccccc2Cl)c(F)c1` [Example 81, N^5-{4-[(2-chlorobenzoyl)amino]-3-fluorophenyl}-N^4-[2-(dimethylamino)ethyl]-1H-imidazole-4,5-dicarboxamide], the IC50 in assay [1] turned out to be 60 nM; in assay [2] (setting [3]) it was 660 nM.

For the compound `CNC(=O)c1nc[nH]c1C(=O)Nc1ccc(NC(=O)c2cc(F)ccc2Cl)cc1` [Example 361, N^5-{4-[(2-chloro-5-fluorobenzoyl)amino]phenyl}-N^4-methyl-1H-imidazole-4,5-dicarboxamide], the half-maximal inhibitory concentration (IC50) worked out at 140 nM in assay [1] and 260 nM in assay [2] (setting [3]).

For the compound `O=C(Nc1ccc(NC(=O)c2[nH]cnc2C(=O)NCCc2ccccn2)cc1)c1ccc(F)cc1Cl` [Example 387, N^5-{4-[(2-chloro-4-fluorobenzoyl)amino]phenyl}-N^4-[2-(pyridin-2-yl)ethyl]-1H-imidazole-4,5-dicarboxamide], the values for the IC50 in assay [1] and in assay [2] (setting [3]) were 100 nM and 800 nM, respectively.

On to `CCN1CCC[C@@H]1CNC(=O)c1nc[nH]c1C(=O)Nc1ccc(NC(=O)c2ccc(F)cc2Cl)cc1` [Example 413, N^5-{4-[(2-chloro-4-fluorobenzoyl)amino]phenyl}-N^4-{[(2R)-1-ethylpyrrolidin-2-yl]methyl}-1H-imidazole-4,5-dicarboxamide], for which the values for the half-inhibitory concentration (IC50) in assay [1] and in assay [2] (setting [3]) were 80 nM and 700 nM, respectively.

Turning to `CNC(=O)c1nc[nH]c1C(=O)Nc1ccc(NC(=O)c2cc(OC(F)(F)F)ccc2Br)cc1` [Example 64, N^5-(4-{[2-bromo-5-(trifluoromethoxy)benzoyl]amino}phenyl)-N^4-methyl-1H-imidazole-4,5-dicarboxamide], the IC50 in assay [1] is greater than 10000 nM; in assay [2] (setting [3]), 1450 nM.

Regarding `O=C(Nc1ccc(NC(=O)c2[nH]cnc2C(=O)NCCC2CC2)cc1)c1ccc(F)cc1Cl` [Example 43, N^5-{4-[(2-chloro-4-fluorobenzoyl)amino]phenyl}-N^4-(2-cyclopropylethyl)-1H-imidazole-4,5-dicarboxamide], the concentration for half-maximal inhibition (IC50) in assay [1] worked out at 9200 nM; in assay [2] (setting [3]), 530 nM.

On to `CNC(=O)c1nc[nH]c1C(=O)Nc1ccc(NC(=O)c2cc(F)c(F)cc2C)cc1` [Example 377, N^5-{4-[(4,5-difluoro-2-methylbenzoyl)amino]phenyl}-N^4-methyl-1H-imidazole-4,5-dicarboxamide], for which the IC50 in assay [1] amounted to 470 nM; in assay [2] (setting [3]) it was 950 nM.

Turning to `CN(C)CCNC(=O)c1nc[nH]c1C(=O)Nc1ccc(NC(=O)c2ccc(F)cc2)c(F)c1` [Example 77, N^4-[2-(dimethylamino)ethyl]-N^5-{3-fluoro-4-[(4-fluorobenzoyl)amino]phenyl}-1H-imidazole-4,5-dicarboxamide], the results for the IC50 in assay [1] and in assay [2] (setting [3]) were 990 nM and 4400 nM, respectively.

Take `CCNC(=O)c1nc[nH]c1C(=O)Nc1ccc(NC(=O)c2cccc(OC)c2Cl)cc1` [Example 260, N^5-{4-[(2-chloro-3-methoxybenzoyl)amino]phenyl}-N^4-ethyl-1H-imidazole-4,5-dicarboxamide]: the half-maximal inhibitory concentration (IC50) in assay [1] is 3000 nM; in assay [2] (setting [3]), 2100 nM.

For the compound `CC(CN1CCOCC1)NC(=O)c1[nH]cnc1C(=O)Nc1ccc(NC(=O)c2ccc(F)cc2)cc1` (stereo not drawn) [Example 294, N^4-{4-[(4-fluorobenzoyl)amino]phenyl}-N^5-[1-(morpholin-4-yl)propan-2-yl]-1H-imidazole-4,5-dicarboxamide], the 50% inhibitory concentration (IC50) was 210 nM in assay [1] and 1550 nM in assay [2] (setting [3]).

Take `CNC(=O)c1nc[nH]c1C(=O)Nc1ccc(NC(=O)c2ccc(C#N)cc2)cc1` [Example 322, N^5-{4-[(4-cyanobenzoyl)amino]phenyl}-N^4-methyl-1H-imidazole-4,5-dicarboxamide]: the IC50 in assay [1] was found to be 1000 nM; in assay [2] (setting [3]) it was 2300 nM.

For the compound `CN(C)CCNC(=O)c1nc[nH]c1C(=O)Nc1ccc(NC(=O)c2ccc(F)cc2Cl)c(F)c1` [Example 73, N^5-{4-[(2-chloro-4-fluorobenzoyl)amino]-3-fluorophenyl}-N^4-[2-(dimethylamino)ethyl]-1H-imidazole-4,5-dicarboxamide], the half-maximal inhibitory concentration (IC50) in assay [1] was 10 nM; in assay [2] (setting [3]) it was 360 nM.

Turning to `CCc1ccccc1C(=O)Nc1ccc(NC(=O)c2[nH]cnc2C(=O)NC)cc1` [Example 39, N^5-{4-[(2-ethylbenzoyl)amino]phenyl}-N^4-methyl-1H-imidazole-4,5-dicarboxamide], the half-maximal inhibitory concentration (IC50) in assay [1] was 2700 nM; in assay [2] (setting [3]), 1700 nM; in assay [2] (HEK293 TOP reporter cells, Wnt3a at EC50, 16 hours, luciferase) it was 1700 nM.

`CCNC(=O)c1nc[nH]c1C(=O)Nc1ccc(NC(=O)c2cc(OC)ccc2Cl)cc1` [Example 264, N^5-{4-[(2-chloro-5-methoxybenzoyl)amino]phenyl}-N^4-ethyl-1H-imidazole-4,5-dicarboxamide]: the IC50 in assay [1] was 90 nM; in assay [2] (setting [3]), 1600 nM.

In the case of `C[C@@H]1CCCCN1CCNC(=O)c1[nH]cnc1C(=O)Nc1ccc(NC(=O)c2ccc(F)cc2Cl)cc1` [Example 267, N^4-{4-[(2-chloro-4-fluorobenzoyl)amino]phenyl}-N^5-{2-[(2R)-2-methylpiperidin-1-yl]ethyl}-1H-imidazole-4,5-dicarboxamide], the 50% inhibitory concentration (IC50) in assay [1] came to 7 nM; in assay [2] (setting [3]), 20 nM.

As to `CNC(=O)c1nc[nH]c1C(=O)Nc1ccc(NC(=O)c2ccc(F)cc2Br)cc1` [Example 56, N^5-{4-[(2-bromo-4-fluorobenzoyl)amino]phenyl}-N^4-methyl-1H-imidazole-4,5-dicarboxamide], the results for the IC50 in assay [1] and in assay [2] (setting [3]) were 530 nM and 120 nM, respectively.

In the case of `CC1(C)CC(NC(=O)c2nc[nH]c2C(=O)Nc2ccc(NC(=O)c3ccc(F)cc3Cl)cc2)CCO1` (stereo not drawn) [Example 391, N^5-{4-[(2-chloro-4-fluorobenzoyl)amino]phenyl}-N^4-(2,2-dimethyltetrahydro-2H-pyran-4-yl)-1H-imidazole-4,5-dicarboxamide], the half-maximal inhibitory concentration (IC50) in assay [1] worked out at 400 nM; in assay [2] (setting [3]), 670 nM.
